Test results taken from patent US5658944A, “Anti-atherosclerotic aryl compounds” (The University of South Carolina, priority 1990, dated 1997).

Assays:
[1] = system: cholesterol-cholic acid fed rats; test: Determination of hypolipdemic activity in cholesterol-cholic acid fed rats; assay type: in vivo, rat; conditions: serum on fourth day
From the text: (ii) Determination of hypolipdemic activity in cholesterol-cholic acid fed rats
Male Sprague-Dawley rats (CD, Charles River) each weighing 200-300 g were used. Hypercholesterolemia was induced in the rats by administration of a diet enriched to 0.4% cholesterol, 0.2% cholic acid. Prior to the adminstration of the diet, blood samples were collected under halothane anesthesia by cardiac puncture to determine baseline lipid levels. The blood was allowed to clot and serum was obtained for the analysis of total cholesterol, dextran-precipitable lipoproteins cholesterol (VLDL+LDL) and total triglycerides. The rats were divided into groups so that each group had similar average baseline serum lipid levels. Five days after the initial blood sampling, administration of each test compound and the cholesterol-cholic acid-enriched diet was begun. Compounds to be tested by gavage were administered b.i.d. in either 0.5% methyl cellulose or 5% sodium bicarbonate a 9:00 a.m. and 3:00 p.m. for three days and at 9:00 a.m. on the fourth day. Compounds administered as part of the diet were dissolved in ethanol and sprayed on to the diet. The ethonol was allowed to evaporate and the diet given to the rats for three days. On the fourth day, blood samples were collected and the final serum lipid levels determined. All blood samplings were taken after a four-hour fast.

[2] = system: ACAT; test: In vitro assay for the inhibition of ACAT activity; assay type: biochemical, rat; conditions: hepatic microsomes of cholesterol/cholic acid fed male CD rats, [14C]oleoyl-CoA incorporation
Description: (i) In vitro assay for the inhibition of ACAT activity
ACAT activity was determined as described By Ross et al by the incorporation of [^14 C]oleoyl-CoA into cholesterol [^14 C]oleate using hepatic microsomes as the source of both ACAT and cholesterol. Microsomes were prepared from the livers of male CD rats fed a 0.4% cholesterol/0.2% cholic acid diet 3.5 days before sacrifice. Various concentrations of a test compound were preincubated with a 0.5 mg/ml microsomal suspension and after 15 minutes a 50 μg aliquot was removed and incubated with 25 μM of [^14 C]-enriched oleoyl-CoA for 4 minutes. The reaction was terminated by the addition of 1 ml of ethanol and 4 ml of hexane. After shaking, the hexane layer was removed and evaporated to dryness. The hexane extract was then reconstituted in 150 μl of HPLC solvent and injected on to a B&J OD5 Reverse Phase C18 column using an isocratic mobile phase of acetonitrile: isopropanol:heptane (50:40:10) in 0.5% acetic acid at a flow rate of 1.0 ml/min. The product of the reaction, [^14 C]oleoyl cholesterol, was measured using a Flow One radiometric detector. The ACAT IC50 value for each compound was determined from a plot of % inhibition from control vs inhibitor concentration.

| IC50 [2] | Structure (SMILES) | reduced LDL-cholestrol by ([1]; dose of 5 mg/kg) | reduced LDL-cholestrol by ([1]; dose of 25 mg/kg) | reduced LDL-cholestrol by ([1]; dose of 0.5 mg/kg) | reduced LDL-cholestrol by ([1]; dose of 2 mg/kg) | reduced LDL-cholestrol by ([1]; dose of 50 mg/kg) |
| --- | --- | --- | --- | --- | --- | --- |
| 3.4 µM | CCCCCCCN(CCc1ccc(OC(C)(C)C(=O)O)cc1)C(=O)Nc1ccc(OC)cc1OC [Synthetic Example 2, 2-(4-{2-[3-(2,4-dimethoxyphenyl)-1-heptylureido]ethyl}phenoxy)-2-methylpropionic acid] | 41-71% | 61% | – | – | – |
| 7.6 µM | CCCCCCCN(CCc1ccc(OC(C)(C)C(=O)O)cc1)C(=O)Nc1ccc(F)cc1F [Synthetic Example 3, 2-(4-{2-[3-(2,4-difluorophenyl)-1-heptylureido]ethyl}phenoxy)-2-methypropionic acid] | – | – | 90% | 74% | – |
| 4.5 µM | CCCCCCCN(Cc1ccc(OC(C)(C)C(=O)O)cc1)C(=O)Nc1ccc(OC)cc1OC [Synthetic Example 1, 2-(4-{[3-(2,4-dimethoxyphenyl)-1-heptylureido]methyl}phenoxy)-2-methylpropionic acid] | – | 55% | – | – | 67% |
